“Also recorded” adds a separate entry of the source. Where two headings read alike, the source gives them in different places.
Columns and labels:
[1] = target: T1, Lck SH2 domain (Homo sapiens, UniProt P06239); experiment: in vitro binding between Lck SH2 domain (GST fusion) and biotinylated phosphotyrosyl peptide
T1 construct: Lck SH2 domain expressed and purified as a fusion protein with Glutathione-S-transferase; made in house
Text: A novel screening system was developed in the present invention to screen a substance inhibiting the interaction between Lck SH2 domain and its ligand. In the binding assay, Lck SH2 domain expressed and purified as a fusion protein with Glutathione-S-transferase (GSI) were covalently attached to 96-well microtitre plates through amide bond formation. The immobilized proteins were subsequently allowed to bind biotinylated phosphotyrosine (Y)-containing synthetic peptide (biotin-[…]pYEEIPI) known as a high affinity ligand for the Lck SH2 domain.
For attachment to 96-well microtitre plate, 1 μM of purified fusion protein (GST-Lck SH2) was reacted for 2 hours at room temperature. Added to the binding assay were 1 μM of the biotinylated synthetic peptide (the ligand of Lck SH2 domain) and a candidate for the inhibitor. The candidates were thousands of natural products including various kinds of Streptoryces, fungi and herbs extract. Binding reaction was performed for 2 hours at room temperature, allowing the competitive inhibition of the binding between GST-Lck SH2 and the peptide ligand. Then peroxidase-conjugated streptavidin (Pierce, USA) was added into the mixture so that added conjugates can be bound to biotinylated peptide. After unbound conjugates were washed, coloring reaction was performed to measure the activity of immobilized peroxidase, or the binding activity of the peptide to SH2 domain in the presence of the candidate added. More particularly, the coloring reaction was initiated by adding 3,3,5,5-tetramethyl benzidine (substrate) to the reaction mixture. After 30 minutes, the reaction was stopped by adding 0.8M sulfuric acid, and immediately brought to the spectrophotometry of measuring absorbance at 450 nm.
Various concentrations (0.03~300 μg/ml) of rosmarinic acid solution, which was isolated from Prunella vulgaris or derivatives thereof, were added to the protein-coated micro-well mixed with phosphopeptide solution. The binding of biotiyated pY peptides was detected by the streptavidin-conjugated horseradish peroxidase (HRP).

[2] = test system: IL-2 gene expression in Jurkat T cells; experiment: TCR stimulation-induced IL-2 gene expression, IL-2-luciferase reporter system; type: cell-based; conditions: 8 μM, 30 min prior to T cell activation
Description: The effects of rosmarinic acid and derivatives thereof on the level of IL-2 gene expression were tested by using the IL-2-luciferase reporter system, in which cultured cells were transfected with a reporter plasmid. The plasmid was constructed by fusion of the IL-2 promoter sequence with the structural gene of luciferase. […] Cells were activated by incubation for 14 h on a 35 mm dish coated with 5 μg/ml anti-CD3 antibody (UCHT1, Pharmingen) and/or anti-CD4 antibody (RPA-T4, Pharmingen) and then harvested. For PMA plus Iononycin stimulation, 5 ng/ml of PMA and 500 ng/ml of lonomycin were added to the culture media and incubated for 14 h. Luciferase activity was determined three times in duplicate for each experiment with a Berthold luminometer LB953.

[3] = test system: DNFB-induced contact hypersensitivity; experiment: contact hypersensitivity response to DNFB, ear thickness; type: in vivo, Balb/c female mice; conditions: intramuscular, 6 consecutive days during induction phase; rosmarinic acid 5-50 mg/kg/day
Description: In vivo test procedure evaluating the immunosuppressive activity was performed using contact hypersensitivity response to DNEB (2,4-dinitroflourobenzene). […] This is an antigen-specific T cell-mediated inflammatory response that represents delayed-type hypersensitivity (DTH) reactions seen in both humans and other mammals. The contact sensitivity animal model is used routinely in many laboratories for pharmacological screening of anti-inflammatory agents and agents for the treatment of autoimmune diseases. […] The procedure is summarized as following. Balb/c female mice were used at 8 weeks of age. Twenty μl of 0.5% DNFB (Sigma Chemical Co.) in 4:1 diluted acetone: olive oil (Sigma Chemical Co.) was painted on each shaved abdominal skin for 2 successive days. Four days later, the mice were challenged by applying 10 μl of 0.2% DNFB in the same vehicle to each side of each ear. Cydosporin A and rosmarinic acid were treated through intramuscular administration at the indicated doses from 0 to 5 day. Ear thickness was measured using engineer's micrometer (Mitutoyo Co. Mfg. Ltd., Tokyo) 24 h after postchallenge.

[4] = test system: C57BL/6 tail-skin graft on Balb/c recipient mice; experiment: skin allograft rejection, survival time of skin graft; type: in vivo
Description: In vivo procedure evaluated the survival time of a skin graft.
Experimental allograft rejection was performed by grafting allogeneic C57BL/6 (H-2b) mouse tail-skin onto Balb/c (H-2d) recipient mice. Rosmarinic acid and derivative thereof were administered intramuscularly from the day of the transplantation until rejection. […] Full-thickness donor (C57BL/6) tail skin grafts (square pieces 2.0×2.0 cm) were transplanted onto the lateral thorax of recipient mice (Balb/C) and covered with sterile bactericidal gauze. The entire chest was then wrapped with an elastic bandage. […] Skin graft were monitored daily after the removal of the bandage on day 6. Rejection was defined as more than 90% necrosis of the graft epithelium.

[5] = test system: SPF SD type rat; experiment: parenteral administration test for acute toxicity; type: in vivo
Text: Acute toxicity was examined using 6week-old SPF SD type rat. As liposomal form, I g/kg of rosmarinic acid, rosmarinyl isopropyl ester, rosmarinyl ethyl ester, (S)-rosmarinyl bis(tert-butyldimethylsilyl)ether or (S)-rosmarinic acid was intramuscularly injected into two […] per experimental group.

[6] = test system: Jurkat cells; experiment: intracellular calcium signaling activated by anti-CD3 and anti-CD4 antibodies (Fura-2/AM); type: cell-based; conditions: 0.5-50 μg for 10 minutes, then anti-CD3 and anti-CD4 antibodies
Description: Fura-2/AM (Calbiochem, San Diego, Calif., USA), a fluorescent indicator of intracellular calcium, was loaded into Jurkat cells, and various amounts (0.5 μg, 1 μg, 10 μg, 50 μg) of rosmarinic acid, isolated from Prunella vulgaris, was treated to the cells for 10 minutes. The cells were treated with anti-CD3 and anti-CD4 antibodies, and then the fluctuation of intracellular calcium level was recorded by the amount of fluorescence emitted from the cells.

[7] = test system: IL-1β, IL-2, IL-4, IL-6 and IFN-γ mRNA; experiment: cytokine mRNA in renal allografts, semi-quantitative RT-PCR; type: in vivo, mice; conditions: renal allograft day 7, i.m. daily 7 days, rosmarinic acid 25, Cyclosporin A 50 mg/kg/day
Text: Balb/c recipients transplanted from C57BL/6 donor were killed at 7 day after the subcapsular kidney transplantation. Renal allografts were harvested and total cellular RNA was extracted and analyzed for the expression of various cytokine mRNA. Using a serniquantitative PCR method, we temporally analyzed mRNA levels of IL-1β, IL-2, IL-4, IL-6 and IFN-γ.
The cytokine levels of PCR products were normalized by β-actin mRNA used as a control.
Kidney fragments (C57BL/6) were transplanted to allogeneic mice (Balb/C) using subcapsular kidney transplantation technique.
Total RNA from the grafts was isolated using TRIZOL® LS Reagent (Life Technologies), incubated at room temperature for 15 min after addition of chloroform, extracted with phenol/chloroform, and precipitated with isopropanol. Isolated total RNA was then quantitated spectrophotometrically. Total RNA from the graft (1 μg) was performed using Titan™ One Tube RT-PCR System (BM) according to the manufacture's protocol. The PCR was done in a 50 μl volume containing 1× RT-PCR buffer with Mg^2+, 0.2 mM each dNTP(dATP, dGTP, dCTP and dTTP), 10U RNase inhibitor, enzyme mix (AMV and Expand™ High Fidelity PCR-System),5 mM DTT solution and 0.4 μM appropriate primer pair. Primer sequences for IL-2, IFN-γ, IL-4, IL-6, IL-1β and β-actin were obtained from previous reports. […] The number of amplification cycles was 25. An aliquot (15 μl) of the PCR product was electrophoresed on 2% agarose gel, and amplified DNA fragments were stained with ethidium bromide.

[8] = 1 g/kg intramuscular, liposomal form
[9] = GST-Lck SH2, 1 μM biotinylated pY peptide, 0.03~300 μg/ml tested, read-out: half-maximal inhibitory concentration (IC50) of binding to Lck SH2 domain (converted)

T1 sequence (P06239 127-224 limits assumed): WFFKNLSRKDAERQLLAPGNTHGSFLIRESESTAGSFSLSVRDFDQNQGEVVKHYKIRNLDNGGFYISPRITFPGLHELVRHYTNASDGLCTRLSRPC

| Compound | IC50 ([1]; read-out: half-maximal inhibitory concentration (IC50) of binding to Lck SH2 domain, GST-Lck SH2, 1 μM biotinylated pY peptide, 0.03~300 μg/ml tested) [µM] | inhibition of TCR-induced IL-2 gene expression (luciferase activity) [2] | suppression of DNFB-induced contact hypersensitivity [3] | MST ± SD ([4]; 15 mg/kg/day i.m.) [days] | acute toxic effect (clinic symptom, weights, blood test, autopsy) [5, 8] | survival after acute dose [5, 8] | IC50 [1, 9] [µM] | survival after acute dose ([5]; in vivo) | IC50 [1] [µM] | inhibitory effect on intracellular calcium level [6] | MST ± SD ([4]; 15 mg/kg/day i.m., listed as rosmarinic acid) [days] | MST ± SD ([4]; 25 mg/kg/day i.m.) [days] | IFN-γ mRNA transcription in allograft transplants [7] | IL-1β mRNA transcription in allograft transplants ([7]; 50 mg/kg/day) | IL-2 mRNA transcription in allograft transplants ([7]; 50 mg/kg/day) | IL-4 mRNA transcription in allograft transplants ([7]; 50 mg/kg/day) | IL-6 mRNA transcription in allograft transplants ([7]; 50 mg/kg/day) |
| --- | --- | --- | --- | --- | --- | --- | --- | --- | --- | --- | --- | --- | --- | --- | --- | --- | --- |
| CC(C)(C)[Si](C)(C)Oc1ccc(/C=C/C(=O)O[C@@H](Cc2ccc(O)c(O)c2)C(=O)O)cc1O[Si](C)(C)C(C)(C)C [(S)-Rosmarinyl bis(tert-butyldimethylsilyl)ether] | 22.1 | inhibited as much as rosmarinic acid | dose-dependent suppression | 13.2 ± 1.6 | did not elicit any toxic effect | all tested animals were survived | – | – | – | – | – | – | – | – | – | – | – |
| CC(C)OC(=O)C(Cc1ccc(O)c(O)c1)OC(=O)/C=C/c1ccc(O)c(O)c1 (centres unmarked) [Rosmarinyl isopropyl ester] | – | inhibited as much as rosmarinic acid | dose-dependent suppression | 14.2 ± 1.8 | did not elicit any toxic effect | – | 2.49 | all tested animals were survived | – | – | – | – | – | – | – | – | – |
| CCOC(=O)C(Cc1ccc(O)c(O)c1)OC(=O)/C=C/c1ccc(O)c(O)c1 (centres unmarked) [Rosmarinyl ethyl ester] | – | inhibited as much as rosmarinic acid | dose-dependent suppression | 14.4 ± 1.8 | did not elicit any toxic effect | – | 10.3 | all tested animals were survived | – | – | – | – | – | – | – | – | – |
| O=C(/C=C/c1ccc(O)c(O)c1)OC(Cc1ccc(O)c(O)c1)C(=O)O (centres unmarked) [Rosmarinic acid, rosmarinic acid] | – | more efficiently than other immunosuppressants did | dose-dependently suppressed | 14.0 ± 1.0 | did not elicit any toxic effect | all tested animals were survived | – | – | 8.33 | dose-dependent inhibitory effect | 14.0 | 18.8 ± 3.6 | markedly inhibited | markedly inhibited; also recorded: more potent activity than that of Cyclosporin A | markedly inhibited; also recorded: more potent activity than that of Cyclosporin A | markedly inhibited; also recorded: significantly reduced | markedly inhibited; also recorded: significantly reduced |
| O=C(/C=C/c1ccc(O)c(O)c1)O[C@@H](Cc1ccc(O)c(O)c1)C(=O)O [(S)-rosmarinic acid] | – | inhibited as much as rosmarinic acid | dose-dependent suppression | 14.8 ± 1.5 | did not elicit any toxic effect | all tested animals were survived | – | – | 27.8 | – | – | – | – | – | – | – | – |

Reference: US6140363A, “Use of rosmarinic acid and derivatives thereof as an immunosuppressant or an inhibitor of SH2-mediated processes” (Mogam Biotechnology Research Institute, priority 1998, dated 2000)
